Test results reported in patent publication US9394544B2, “Ameliorating oxidative stress in neurodegenerative disease via Nox1 targeting” (University of Central Florida Research Foundation, Inc., priority 2013, dated 2016).

Columns and labels:
[1] = system: Flag-tagged wild-type (WT) α-synuclein; experiment: Aggregation of overexpressed flag-tagged WT α-synuclein in N27 cells exposed to PQ; format: cell-based, rat
Description: Human α-synuclein was cloned into the p3xFLAG-myc-CMV-23 expression vector (Sigma) for N- and C-terminal tagging with FLAG and Myc, respectively. For transient overexpression of tagged α-synuclein, N27 cells were plated onto 24-well plates with coverslips at 0.5×10^5 cells per well 1 d before transfection. The next day, cells were transiently transfected with FLAG-WTsyn-myc. Briefly, 1 μg of plasmid DNA was mixed with 6 μl of Lipofectamine 2000 (Invitrogen) in 100 μl of Opti-MEM for 20 min before addition in the culture. After 6 h of incubation, the culture medium was changed and 100 μl of Nox1 shRNA/LVX viral particle was added to each well. Cells were maintained for an additional 36 h before treatment with 800 μM or 1000 μM PQ for 8 and 24 h.
(§1) After each respective treatment, cells were fixed in 4% paraformaldehyde (PFA) for 20 min and permeabilized with 0.1% Triton X-100 in PBS for 10 min. Blocking was performed by incubation with 20% goat or donkey serum in PBS containing 0.1% Tween 20 for 90 min at room temperature. […] For quantification of Flag^+ and α-synuclein^+ cells, >30 different fields per coverslip were analyzed on a Nikon inverted fluorescent microscope under a 20× and 40× magnification.

[2] = system: α-synuclein; experiment: α-Synuclein protein levels (immunoblot) in N27 cells exposed to PQ; format: cell-based, rat
Description: The N27 cells were grown in RPMI 1640 medium containing 10% fetal bovine serum (FBS), 100 U penicillin, and 50 μg/ml streptomycin, in a humidified atmosphere of 5% CO2 at 37° C. N27 cultures were prepared for experiments by plating the cells on polystyrene tissue culture dishes at a density of 0.5×10^5 cells/well in 24-well culture plates with glass coverslip and at 1.5×10^5 cells/well in 6-well culture plates.
For Western blot, brain tissues were lysed on ice in radioimmunoprecipitation assay buffer containing 50 mMTris/HCl, pH 8.0, 150 mM NaCl, 2 mM sodium orthovanadate, 1% Nonidet-P40 (NP-40), 0.5% sodium deoxycholate, and 0.1% SDS, containing 1% of a protease inhibitor mixture (AEBSF, pepstatinA, E-64, bestatin, leupeptin, and aprotinin). The soluble fraction was obtained and equal amounts of cell lysate protein were loaded in each lane of a 12% SDS-PAGE or 4/10% to 20% polyacrylamide gel. After electrophoresis and transfer onto a polyvinylidene difluoride (PVDF) membrane, specific protein bands were detected using appropriate primary antibodies (rabbit anti-Nox1, rabbit anti-α-synuclein, mouse anti-Ubiquitin, mouse anti-tyrosine hydroxylase (TH), and mouse anti-β-actin) and secondary antibodies conjugated to alkaline phosphatase or […] peroxidase (anti-rabbit or anti-mouse) followed by Enhanced Chemifluorescence (ECF) detection or Enhanced Chemiluminescence (ECL).

[3] = system: differentiated human dopaminergic cells (ReNcell VM); experiment: α-Synuclein and Nox1 levels in differentiated ReNcell VM human dopaminergic neurons exposed to PQ; format: cell-based
Excerpt: For the in vitro experiments on human dopaminergic neurons, human mesencephalic neuronal progenitor cell line available from Millipore (catalog number SCC008) was used. The specialty of these cells is that they are isolated from fetal human ventral mesencephalic region and subsequently immortalized by introduction of v-myc. The cells can readily differentiate into dopaminergic neurons upon withdrawal of growth factors (Millipore). The culture method was followed as indicated by the company with little modifications. Briefly, the cells were allowed to grow on laminin-coated (20 μg/ml) dishes in DMEM/F12-containing medium with B27 supplement, glutamax, heparin (10 U/ml), and gentamicin (50 μg/ml). This medium is called maintenance medium. Cell division was allowed by addition of the two growth factors in the medium viz., basic fibroblast growth factor (bFGF) and epidermal growth factor (EGF), both at a concentration of 20 ng/ml. […]
as §1, with “min.” for “min. Blocking was performed by incubation with 20% goat or donkey serum in PBS containing 0.1% Tween 20 for 90 min at room temperature.”

C[n+]1ccc(-c2cc[n+](C)cc2)cc1 [PQ, paraquat]
increase of flag-tagged WT α-synuclein aggregation vs control cells [1]: 2.5 fold
increase of α-synuclein protein levels ([2]; 800 μM, 8 h): 55%
increase of α-synuclein protein levels ([2]; 800 μM, 24 h): 61%
increase of α-synuclein protein levels ([2]; 1000 μM, 8 h): 60%
increase of α-synuclein protein levels ([2]; 1000 μM, 24 h): 27%
Nox1 level (immunocytochemistry, Western blot) ([3]; 8 h PQ): highly elevated
α-synuclein level ([3]; PQ 800 or 1000 μM, 8 and 24 h): increases over time
